From patent US20130072899A1, “Pharmaceutical Formulations for Iontophoretic Delivery of Gallium” (Nitric BloTherapeutics, Inc., priority 2008, published 2013)
“And” between values parts separate entries of the source, which are not always exact repeats. Identical values can stand only once. Like-named read-outs stand apart in the source and are kept apart here.

How the values were obtained:
collagen synthesis = settings: cited from earlier work
[1] = Gallium permeated through human cadaver skin, receptor analysis; assay type: in vitro ADME; settings: any of the conditions tested
Protocol: Anodal and cathodal iontophoresis (0.3 mA/cm^2 for 15 min) were carried out using full thickness human cadaver skin in Franz diffusion cells. Ga nitrate solutions (0.15% in 0.05M citrate buffer, or a saturated solution of 16.6% in 0.1M/1M citrate buffer) at different pH conditions (2 to 8) were evaluated.

[2] = Gallium permeation through full thickness human skin, Franz cells (effect of concentration and iontophoresis duration); assay type: in vitro ADME; settings: for Amount of Ga detected in receiver after 70 h / Steady state Ga flux: nitrate hydrate; for increase in gallium permeation compared to passive cells: 16.7% w/v, 70 h
Protocol: Human full thickness skin was stored in the same fashion as the epidermal sheet (Example 3), and a similar Franz cell assembly technique was adopted. The effect of concentration was investigated by applying 16.7, 1.5 and 0.15 % w/v gallium solutions in pH 5.0 citric acid buffer to the donor compartment (0.8 mL). Ten minutes of 400 μA iontophoresis was applied to all of the cells and 0.5 mL samples were removed after 0, 24, 28, 42, 65 and 70 h and replaced with receiver fluid. The gallium in the samples was assayed using the LC ion-exchange method. […] Samples of 0.5 mL were removed for LC ion-exchange assay after 0, 24, 28, 42, 52 and 70 h and replaced with receiver fluid. […] Gallium solutions containing 2.4, 1.6, 0.79, 0.395 and 0.1975 mg of gallium in 20 μL of water were applied to the stratum corneum of the skin samples using a positive displacement pipette (Eppendorf, Cambridge, UK). The samples were then left for 24 h to allow the gallium to permeate the skin. The skin samples were then finely sliced using scissors, chilled and homogenised for five minutes using a T10 Ultra-Turax homogeniser (IKA works, Staufen, Germany) using 30 second pulses. The scalpel, scissors, forceps and homogeniser blades were washed through using 10 mL of PDCA mobile phase concentrate as the extractant. The PDCA concentrate (pH 4.2) was freshly made every week by weighing approximately 5.8 g PDCA, 18.5 g potassium hydroxide, 4.9 g potassium sulphate and 17.0 g of formic acid into a 1000 mL volumetric and making up to volume with DiH2O. The skin-PDCA concentrate homogenate was allowed to mix for a further 24 h before being filtered using 0.45 μm, 30 mm cellulose acetate syringe filters (Orange Scientific, Braine l'Alleud, Belgium). The gallium in the remaining solution was assayed using the LC ion-exchange method. The binding affinity was calculated by subtracting the amount of gallium recovered by the extraction from the amount applied to the skin, in order to gain the amount of gallium still bound to skin in the homogenate. This figure was then divided by the mass of the skin sample to calculate the amount of gallium bound per gram of skin.

[3] = Chemical stability of Ga in different 50 mM buffers (HPLC gallium recovery); assay type: physicochemical
Protocol: The chemical stability of Ga in different 50 mM buffers was assessed including TRIS (pH 7.0), pyrrolidine (pH 11.3), citric acid (pH 5.0), borate (pH 8.0), formic acid (pH 2.5), phosphate (pH 7.3) and HEPES (pH 7.2). Three standard solutions of Ga in each buffer was assessed by HPLC analysis using the method described in Example 1 at four time points 0, 24, 48 and 100 h. Performance was measured by percentage gallium recovery according to the following formula: […]

[4] = Infinite dose mass balance study, gallium recovery from human skin; settings: for Ga mass detected per skin surface area: nitrate hydrate
Protocol: An infinite dose mass balance study was performed using full thickness human skin. Small Franz cells were set up as previously described and the mass and thickness of skin section recorded. […] Cells were then treated with either […] iontophoresis or received no iontophoresis (n=6 for each). […] The skin samples were removed and reweighed.
(Cells dismantled after 0 and 60 h post iontophoresis).

[5] = 0.15% w/v, iontophoresis 10 min, 400 μA, listed as Ga
[6] = 1.5% w/v, iontophoresis 10 min, 400 μA, listed as Ga
[7] = 16.67% w/v, iontophoresis 0 min (passive), listed as Ga
[8] = 16.67% w/v, iontophoresis 0 min (passive)
[9] = 16.67% w/v, iontophoresis 10 min, 400 μA, listed as Ga
[10] = 16.67% w/v, iontophoresis 10 min, 400 μA, listed as gallium
[11] = 16.67% w/v, iontophoresis 60 min, 400 μA, listed as Ga
[12] = 16.67% w/v, iontophoresis 60 min, 400 μA
[13] = Ionto (400 μA, 60 min) 0 h, 1.5% w/v
[14] = Ionto (400 μA, 60 min) 60 h, 1.5% w/v

O=[N+]([O-])[O-].O=[N+]([O-])[O-].O=[N+]([O-])[O-].[Ga+3] [gallium nitrate, Gallium (III) nitrate hydrate]
maximum effective dose (collagen synthesis; nitrate hydrate): 100 uM and 0.0256 mg/ml | effective range per mg tissue (collagen synthesis; per mg dry weight tissue, Goncalves et al., 2002, Bockman patent): 1 to 1000 ng/mg | effective (desired) concentration range (collagen synthesis; published, Bockman et al. 1993, Goncalves et al. 2002): 0.25 to 100 µM | Ga in the receptor [1]: not detected | Amount of Ga detected in receiver after 70 h [2, 5]: 0.0028 ± 0.006 mg/cm^2 | Steady state Ga flux [2, 5]: 0.008 μg/cm^2/h and 0.008 ± 0.005 μg/cm^2/h | Amount of Ga detected in receiver after 70 h ([2]; 0.15% w/v, iontophoresis 10 min, 400 μA): 0.0028±0.006 mg/cm^2 | reduction of amount of drug permeating the skin ([2]; 1.5% w/v vs 16.67% w/v Ga, 10 min iontophoresis): 10.6% | Amount of Ga detected in receiver after 70 h [2, 6]: 0.044 ± 0.034 mg/cm^2 | Steady state Ga flux [2, 6]: 0.9 μg/cm^2/h and 0.900 ± 0.695 μg/cm^2/h | Amount of Ga detected in receiver after 70 h ([2]; 1.5% w/v, iontophoresis 10 min, 400 μA): 0.0438±0.034 mg/cm^2 | Amount of Ga detected in receiver after 70 h [2, 7]: 0.004 ± 0.011 mg/cm^2 | Steady state Ga flux [2, 7]: 0.009 ± 0.003 μg/cm^2/h | Amount of Ga detected in receiver after 70 h [2, 8]: 0.004±0.011 mg/cm^2 | Steady state Ga flux [2, 8]: 0.009±0.003 μg/cm^2/h | Amount of Ga detected in receiver after 70 h [2, 9]: 0.049 ± 0.013 mg/cm^2 | Steady state Ga flux [2, 9]: 0.9 μg/cm^2/h and 0.900 ± 0.238 μg/cm^2/h | Amount of Ga detected in receiver after 70 h [2, 10]: 0.049±0.013 mg/cm^2 | Steady state Ga flux [2, 10]: 0.9±0.238 μg/cm^2/h | Amount of Ga detected in receiver after 70 h ([2]; 16.67% w/v, iontophoresis 10 min, 400 μA): 0.049±0.013 mg/cm^2 | Amount of Ga detected in receiver after 70 h [2, 11]: 0.063 ± 0.022 mg/cm^2 | Steady state Ga flux [2, 11]: 1.300 ± 0.450 μg/cm^2/h | Amount of Ga detected in receiver after 70 h [2, 12]: 0.063±0.022 mg/cm^2 | Steady state Ga flux [2, 12]: 1.3±0.450 μg/cm^2/h | increase in gallium permeation compared to passive cells ([2]; 10 min iontophoresis): 1125% | increase in gallium permeation compared to passive cells ([2]; 60 min iontophoresis): 1475% | gallium skin deposition (0.15% in 0.05M citrate buffer, pH 2, cathodal 0.3 mA/cm^2 15 min): 277.90 ± 51.24 ng/mg | gallium skin deposition (0.15% in 0.05M citrate buffer, pH 3, cathodal 0.3 mA/cm^2 15 min): 113.16 ± 17.65 ng/mg | gallium skin deposition (0.15% in 0.05M citrate buffer, pH 4, cathodal 0.3 mA/cm^2 15 min): 60.5 ± 21.11 ng/mg | gallium skin deposition (0.15% in 0.05M citrate buffer, pH 6, cathodal 0.3 mA/cm^2 15 min): 51.16 ± 6.65 ng/mg | maximum skin deposition expressed as concentration (16.6% gallium nitrate in 1M citrate at pH 8, 0.3 mA/cm^2 for 15 min): 0.78 mg/mL | gallium skin deposition (16.6% in 0.1 M citrate buffer, pH 2, anodal): 91.74 ± 13.09 ng/mg | gallium skin deposition (16.6% in 0.1 M citrate buffer, pH 4, anodal): 74.42 ± 22.31 ng/mg | gallium skin deposition (16.6% in 0.1 M citrate buffer, pH 6, anodal): 62.19 ± 23.76 ng/mg | gallium skin deposition (16.6% in 0.1 M citrate buffer, pH 6, cathodal): 99.62 ± 36.44 ng/mg | gallium skin deposition (16.6% in 1M citrate buffer, pH 6, cathodal): 163.72 ± 36.72 ng/mg | gallium skin deposition (16.6% in 1M citrate buffer, pH 7, cathodal): 250.49 ± 39.76 ng/mg | gallium skin deposition (16.6% in 1M citrate buffer, pH 8, cathodal, nitrate hydrate): 329.52 ± 36.10 ng/mg and 330 ng/mg | Ga loss after 100 h ([3]; 0.25 mg/ml Ga in pyrrolidine buffer, P<0.05, ANOVA): significant Ga loss | [Ga] mg/ml recovered ([3]; Borate (pH 8.0) 50 mM, listed as Ga, nitrate hydrate): no peaks observed | [Ga] mg/ml recovered ([3]; Citric acid (pH 5.0) 50 mM, target conc. 0.13 mg/ml): 0.15 mg/mL | [Ga] mg/ml recovered ([3]; Citric acid (pH 5.0) 50 mM, target conc. 0.25 mg/ml): 0.28 mg/mL | [Ga] mg/ml recovered ([3]; Citric acid (pH 5.0) 50 mM, target conc. 0.5 mg/ml): 0.54 mg/mL | [Ga] mg/ml recovered ([3]; Formic acid (pH 2.5) 50 mM, target conc. 0.13 mg/ml): 0.16 mg/mL | [Ga] mg/ml recovered ([3]; Formic acid (pH 2.5) 50 mM, target conc. 0.25 mg/ml): 0.29 mg/mL | [Ga] mg/ml recovered ([3]; Formic acid (pH 2.5) 50 mM, target conc. 0.5 mg/ml): 0.55 mg/mL | [Ga] mg/ml recovered ([3]; HEPES (pH 7.2) 50 mM, target conc. 0.13 mg/ml): 0.10 mg/mL | [Ga] mg/ml recovered ([3]; HEPES (pH 7.2) 50 mM, target conc. 0.25 mg/ml): 0.06 mg/mL | [Ga] mg/ml recovered ([3]; HEPES (pH 7.2) 50 mM, target conc. 0.5 mg/ml): 0.13 mg/mL | [Ga] mg/ml recovered ([3]; Phosphate (pH 7.3) 50 mM, target conc. 0.13 mg/ml): 0.04 mg/mL | [Ga] mg/ml recovered ([3]; Phosphate (pH 7.3) 50 mM, target conc. 0.25 mg/ml): 0.11 mg/mL | [Ga] mg/ml recovered ([3]; Phosphate (pH 7.3) 50 mM, target conc. 0.5 mg/ml): 0.30 mg/mL | [Ga] mg/ml recovered ([3]; Pyrrolidine (pH 11.3) 50 mM, target conc. 0.13 mg/ml): 0.13 mg/mL | [Ga] mg/ml recovered ([3]; Pyrrolidine (pH 11.3) 50 mM, target conc. 0.25 mg/ml): 0.25 mg/mL | [Ga] mg/ml recovered ([3]; Pyrrolidine (pH 11.3) 50 mM, target conc. 0.5 mg/ml): 0.49 mg/mL | [Ga] mg/ml recovered ([3]; TRIS (pH 7.0) 50 mM, target conc. 0.13 mg/ml): 0.01 mg/mL | [Ga] mg/ml recovered ([3]; TRIS (pH 7.0) 50 mM, target conc. 0.25 mg/ml): 0.13 mg/mL | [Ga] mg/ml recovered ([3]; TRIS (pH 7.0) 50 mM, target conc. 0.5 mg/ml): 0.49 mg/mL | Ga loss between 0 and 100 h ([3]; citric or formic acid buffer, P>0.05, ANOVA): No significant Ga loss | Ga mass detected, full thickness human skin [4, 13]: 0.0788 ± 0.043 mg | Ga mass detected, skin corrected for binding [4, 13]: 0.127 ± 0.043 mg | Ga mass detected per skin surface area ([4]; Ionto (400 μA, 60 min) 0 h, 1.5% w/v, listed as Ga): 0.200 ± 0.069 mg/cm^2 | Ga mass detected per skin surface area [4, 13]: 0.200±0.069 mg/cm^2 | Ga mass detected, full thickness human skin [4, 14]: 0.328 ± 0.371 mg | Ga mass detected, skin corrected for binding [4, 14]: 0.391 ± 0.373 mg | Ga mass detected per skin surface area ([4]; Ionto (400 μA, 60 min) 60 h, 1.5% w/v, listed as Ga): 0.617 ± 0.059 mg/cm^2 | Ga mass detected per skin surface area [4, 14]: 0.617±0.059 mg/cm^2 | Ga mass detected, full thickness human skin ([4]; Passive 0 h, 1.5% w/v): 0.07 ± 0.036 mg | Ga mass detected, skin corrected for binding ([4]; Passive 0 h, 1.5% w/v): 0.111 ± 0.035 mg | Ga mass detected per skin surface area ([4]; Passive 0 h, 1.5% w/v, listed as Ga): 0.178 ± 0.058 mg/cm^2 | Ga mass detected per skin surface area ([4]; Passive 0 h, 1.5% w/v): 0.178±0.058 mg/cm^2 | Ga mass detected, full thickness human skin ([4]; Passive 60 h, 1.5% w/v): 0.0745 ± 0.108 mg | Ga mass detected, skin corrected for binding ([4]; Passive 60 h, 1.5% w/v): 0.137 ± 0.109 mg | Ga mass detected per skin surface area ([4]; Passive 60 h, 1.5% w/v, listed as Ga): 0.221 ± 0.176 mg/cm^2 | Ga mass detected per skin surface area ([4]; Passive 60 h, 1.5% w/v): 0.221±0.176 mg/cm^2 | increase in skin gallium content, iontophoretic vs passive ([4]; after 60 hours, 1.5% w/v): three fold | total gallium in the skin vs levels in the receiver compartment ([4]; both passive and iontophoretic cells): ten-fold higher | increase in detected gallium level in the skin, iontophoresis vs passive ([4]; immediately after iontophoresis): 12% | increase in gallium flux with 60 min iontophoresis compared to passive ([4]; receiver compartment and recovery from the skin): approximate three-fold increase
